# Measured values from publication PMC4801743 (Journal of enzyme inhibition and medicinal chemistry, 2015).
# Experiments:
# P450 = settings: inactivation of P450; cited from earlier work
# PHM [1] = target: T1, PHM (Rattus norvegicus, UniProt P14925); test: Tiopronin protection against the cinnamate-mediated inactivation of PHM; format: biochemical; settings: 60 μM tiopronin, 7.5 mM cinnamate, 2 h
# T1 sequence (P14925 36-715 isoform P14925-2 limits assumed): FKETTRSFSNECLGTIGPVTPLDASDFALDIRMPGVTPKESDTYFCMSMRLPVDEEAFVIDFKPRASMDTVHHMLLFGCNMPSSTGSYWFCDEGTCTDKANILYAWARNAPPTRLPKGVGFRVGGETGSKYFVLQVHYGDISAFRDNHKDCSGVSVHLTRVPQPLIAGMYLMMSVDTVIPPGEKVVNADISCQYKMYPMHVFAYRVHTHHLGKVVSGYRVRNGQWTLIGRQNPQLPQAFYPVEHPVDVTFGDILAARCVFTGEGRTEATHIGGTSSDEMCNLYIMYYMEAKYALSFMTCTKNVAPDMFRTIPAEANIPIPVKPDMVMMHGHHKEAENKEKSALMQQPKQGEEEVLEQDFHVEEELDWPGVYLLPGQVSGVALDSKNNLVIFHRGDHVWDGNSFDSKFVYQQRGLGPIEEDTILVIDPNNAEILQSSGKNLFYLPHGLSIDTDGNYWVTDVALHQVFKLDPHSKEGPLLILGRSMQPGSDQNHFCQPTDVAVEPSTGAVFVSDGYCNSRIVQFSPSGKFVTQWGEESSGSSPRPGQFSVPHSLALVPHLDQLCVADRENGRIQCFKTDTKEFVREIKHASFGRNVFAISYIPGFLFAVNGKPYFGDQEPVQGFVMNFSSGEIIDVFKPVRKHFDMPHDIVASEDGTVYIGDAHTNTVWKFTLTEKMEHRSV
# PHM [2] = target: T1, PHM; test: PHM inactivation by the dilution method; format: biochemical; settings: for Inactivation of PHM (qualitative): dilution method, in the presence of ascorbate and O2; for kinact/KI: pH 6, read-out: (kinact/KI)obs
# PHM [3] = settings: cited from earlier work; for Km: PHM substrate; for Ki: PHM inactivator
# PHM [4] = target: T1, PHM; test: Inhibition of the PHM-dependent consumption of O2; format: biochemical
# [5] = tested on: dopamine β-monooxygenase (DβM); settings: inactivation of DβM; cited from earlier work
compound,measurement,setting,value
C=CCC(C(N)=O)C(C)C (centres unmarked) [2-isopropyl-4-pentenamide],partition ratio,P450,200–300
CC(S)C(=O)NCC(=O)O (centres unmarked) [tiopronin],Protection of PHM from cinnamate-mediated inactivation,PHM [1],did protect PHM from inactivation
"CN(C)c1ccc(C=CC(=O)O)cc1 [N,N-Dimethyl-4-aminocinnamic acid]",Inactivation of PHM (qualitative),PHM [2],inactivate PHM
same,kinact/KI,PHM [2],0.5 M⁻¹ s⁻¹
"O=C(O)CNC(=O)C=Cc1ccccc1 [cinnamoylglycine, N-cinnamoylglycine]",Km,PHM [3],200 µM
O=C(O)C=Cc1ccccc1C(F)(F)F [2-Trifluoromethylcinnamic acid],Ki,PHM [4],200 ± 20 µM
"O=C(O)CNC(=O)CCc1ccccc1 [hydrocinnamoylglycine, N-hydrocinnamoylglycine]",Km,PHM [3],900 µM
Nc1ccc(C=CC(=O)O)cc1 [4-Aminocinnamic acid],Ki,PHM [4],500 ± 60 µM
same,Inactivation of PHM (qualitative),PHM [2],inactivate PHM
same,kinact/KI,PHM [2],1 M⁻¹ s⁻¹
CN(C)c1cccc2c(S(=O)(=O)Nc3ccc(C=CC(=O)O)cc3)cccc12 [N-Dansyl-4-aminocinnamic acid],Inactivation of PHM (qualitative),PHM [2],inactivate PHM
same,kinact/KI,PHM [2],333 M⁻¹ s⁻¹
same,(kinact/KI)obs relative to cinnamate,PHM [2]; ratio to the (kinact/KI)obs value for cinnamate,~ 500 fold
"O=C(O)C=Cc1ccc2c(c1)OCO2 [3,4-Methylenedioxycinnamic acid]",Ki,PHM [4],300 ± 40 µM
"O=C(O)/C=C/C(=O)c1ccccc1 [benzoylacrylate, trans-benzoylacrylate]",Ki,PHM [3],200 µM
phenyl(aminomethyl)ethane,"partition ratio, kcat/kinact",[5],900
"O=C(O)C/C=C/c1ccccc1 [PBA, trans-4-phenyl-3-butenoate]",Ki,PHM [3],50 µM
